Reference: article PMC8075848 (Cell Reports, 2021)
Like-named read-outs stand apart in the source and are kept apart here.

Key:
SARS-CoV-2 M^pro [1] = target: T1, SARS-CoV-2 M^pro (Severe acute respiratory syndrome coronavirus 2, UniProt P0DTD1); experiment: M^pro FRET proteolysis inhibition assay; type: biochemical; conditions: 20 μM drug, 10 nM M^pro
SARS-CoV-2 M^pro [2] = target: T1, SARS-CoV-2 M^pro; experiment: M^pro 1D 1H-NMR proteolysis inhibition assay; type: biochemical; conditions: 50 μM inhibitor, 100 nM M^pro
SARS-CoV-2 [3] = experiment: SARS-CoV-2 replication inhibition in Vero E6 cells; type: cell-based; conditions: up to 50 μM drug
SARS-CoV-2 [4] = type: cell-based
PL^pro = conditions: ref Anson et al., 2020; cited from earlier work
M^pro = conditions: cited from earlier work; for Inhibition of M^pro proteolytic activity: ref Anson et al., 2020, Fu et al., Kneller et al., 2020a, Ma et al.
SARS-CoV-2 [5] = conditions: ref Anson et al., 2020, Fu et al., Ma et al.; cited from earlier work
SARS-CoV-2 [6] = experiment: Antiviral combination assay with remdesivir in Vero E6 cells; type: cell-based; conditions: for Effect of HCV drug on the antiviral activity of remdesivir, in words / Effect of remdesivir on the antiviral activity (IC90) of the HCV drug, in words: Vero cells; for Effect of HCV drug on the antiviral activity of remdesivir, in words: IC90 of remdesivir with increasing HCV drug; for Effect of remdesivir on the antiviral activity (IC90) of the HCV drug, in words: addition of 1.25 μM remdesivir
SARS-CoV-2 [7] = type: cell-based; remark: listed apart in the source
SARS-CoV-2 PL^pro = SARS-CoV-2 PL^pro (Severe acute respiratory syndrome coronavirus 2, UniProt P0DTD1); type: biochemical; conditions: for PL^pro protease activity inhibition, in words: 20 μM drug (grazoprevir in Fig S6: 100 µM)
SARS-CoV-2 [8] = experiment: Time-of-addition assay; type: cell-based; conditions: BOC 50 μM, GRZ 25 μM, NAR 50 μM, VAN 5 μM, SIM 5 μM, added -2, 0, +2, +4 h
Vero E6 cells = conditions: MTT
SARS-CoV-2 [9] = conditions: ref Lo et al., 2021; cited from earlier work

| SMILES | M^pro inhibition activity in FRET assay, in words (SARS-CoV-2 M^pro [1]) | M^pro inhibitory activity in 1D 1H-NMR assay, in words (SARS-CoV-2 M^pro [2]) | Inhibition of virus replication in Vero E6 cells, in words (SARS-CoV-2 [3]) | Synergy Score (ZIP, SynergyFinder) with remdesivir (SARS-CoV-2 [6]) | PL^pro protease activity inhibition, in words (SARS-CoV-2 PL^pro) | also measured |
| --- | --- | --- | --- | --- | --- | --- |
| C=C[C@@H]1C[C@]1(NC(=O)[C@@H]1C[C@@H](Oc2ncc(OC)c3ccc(Cl)cc23)CN1C(=O)[C@@H](NC(=O)OC(C)(C)C)C(C)(C)C)C(=O)NS(=O)(=O)C1CC1 [ASU, Asunaprevir] | not detected | moderate inhibitory activity | inhibited SARS-CoV-2 virus replication at concentrations significantly lower than the concentrations that cause cytotoxicity | – | – | Inhibition of virus replication in human 293T cells, in words (SARS-CoV-2 [4]): did not inhibit viral replication in human cells at concentrations lower than those exhibiting cytotoxicity; Inhibition of PL^pro (PL^pro): inhibit |
| CC(C)(C)NC(=O)N[C@H](C(=O)N1C[C@H]2[C@@H]([C@H]1C(=O)NC(CC1CCC1)C(=O)C(N)=O)C2(C)C)C(C)(C)C (stereo partly shown) [BOC, Boceprevir] | – | substantial enzyme inhibition activity | inhibited SARS-CoV-2 virus replication at concentrations significantly lower than the concentrations that cause cytotoxicity | −7.6 | – | Inhibition of M^pro proteolytic activity (M^pro): inhibit; Inhibition of SARS-CoV-2 replication in Vero cells (SARS-CoV-2 [5]): inhibit; Effect of HCV drug on the antiviral activity of remdesivir, in words (SARS-CoV-2 [6]): did not significantly affect the antiviral activity of remdesivir; Effect of remdesivir on the antiviral activity (IC90) of the HCV drug, in words (SARS-CoV-2 [6]): did not significantly affect |
| CC(C)(C)OC(=O)N[C@H]1CCCCC/C=C\[C@@H]2C[C@@]2(C(=O)NS(=O)(=O)C2CC2)NC(=O)[C@@H]2C[C@@H](OC(=O)N3Cc4cccc(F)c4C3)CN2C1=O [DAN, Danoprevir] | – | – | did not inhibit virus replication | – | – | Inhibition of virus replication in human 293T cells, in words (SARS-CoV-2 [4]): did not inhibit virus replication |
| CC(C)C[C@H](NC(=O)OCc1ccccc1)C(=O)N[C@@H](CC1CCNC1=O)C(O)S(=O)(=O)[O-].[Na+] (stereo partly shown) [GC-376] | – | – | – | – | – | Specificity for M^pro relative to PL^pro (M^pro; ref Sacco et al., 2020): specific; Interaction with remdesivir (additive / synergistic) (SARS-CoV-2 [6]; combination with remdesivir, Vero E6 cells): additive (an additive interaction has a score between −10 to +10) |
| CC(C)(C)[C@@H]1NC(=O)O[C@@H]2CCC[C@H]2OC/C=C/C(F)(F)c2nc3ccccc3nc2O[C@@H]2C[C@@H](C(=O)N[C@]3(C(=O)NS(=O)(=O)C4(C)CC4)C[C@H]3C(F)F)N(C2)C1=O [GLE, Glecaprevir] | – | – | did not inhibit virus replication | – | – | Inhibition of virus replication in human 293T cells, in words (SARS-CoV-2 [4]): did not inhibit virus replication |
| C=C[C@@H]1C[C@]1(NC(=O)[C@@H]1C[C@@H]2CN1C(=O)[C@H](C(C)(C)C)NC(=O)O[C@@H]1C[C@H]1CCCCCc1nc3ccc(OC)cc3nc1O2)C(=O)NS(=O)(=O)C1CC1.O [GRZ, Grazoprevir] | not detected | moderate inhibitory activity | inhibited SARS-CoV-2 virus replication at concentrations significantly lower than the concentrations that cause cytotoxicity | +25.0 | inhibit | Interaction with remdesivir (additive / synergistic) (SARS-CoV-2 [7]): synergistic (key: a synergistic interaction between drugs has a score greater than +10; an additive interaction has a score between −10 to +10; an antagonistic interaction has a score of less than −10); Synergy Score (ZIP, SynergyFinder) with remdesivir (SARS-CoV-2 [7]): +20.3; PL^pro initial rate relative to absence of inhibitor (vo/vo,i) (SARS-CoV-2 PL^pro; 100 μM drug concentration): 32% ± 7%; Inhibition of virus replication by time of drug addition, in words (SARS-CoV-2 [8]): inhibited by the addition of these drugs as late as 4 h post-infection; Effect of HCV drug on the antiviral activity of remdesivir, in words (SARS-CoV-2 [6]): increase the antiviral activity of remdesivir; Effect of remdesivir on the antiviral activity (IC90) of the HCV drug, in words (SARS-CoV-2 [6]): substantially reduces; Inhibition of PL^pro (PL^pro): inhibit |
| CCCC[C@H](NC(=O)[C@@H]1[C@@H]2[C@H](CN1C(=O)[C@@H](NC(=O)NC1(CS(=O)(=O)C(C)(C)C)CCCCC1)C(C)(C)C)C2(C)C)C(=O)C(=O)NC1CC1 [NAR, Narlaprevir] | – | substantial enzyme inhibition activity | inhibited SARS-CoV-2 virus replication at concentrations significantly lower than the concentrations that cause cytotoxicity | – | – | Inhibition of M^pro proteolytic activity (M^pro): inhibit |
| Cc1cnc(C(=O)N[C@H]2CCCCC/C=C\[C@@H]3C[C@@]3(C(=O)NS(=O)(=O)C3CC3)NC(=O)[C@@H]3C[C@@H](Oc4nc5ccccc5c5ccccc45)CN3C2=O)cn1 [PAR, Paritaprevir] | does not inhibit | does not inhibit | inhibited SARS-CoV-2 virus replication at concentrations significantly lower than the concentrations that cause cytotoxicity | +17.3 | inhibit | – |
| CCC(CC)COC(=O)[C@H](C)N[P@](=O)(OC[C@H]1O[C@@](C#N)(c2ccc3c(N)ncnn23)[C@H](O)[C@@H]1O)Oc1ccccc1 [Remdesivir, remdesivir] | – | – | – | – | – | Inhibition of virus replication by time of drug addition, in words (SARS-CoV-2 [8]): decreased its ability to suppress virus infection |
| COc1ccc2c(O[C@@H]3C[C@H]4C(=O)N[C@]5(C(=O)NS(=O)(=O)C6CC6)C[C@H]5/C=C\CCCCN(C)C(=O)[C@@H]4C3)cc(-c3nc(C(C)C)cs3)nc2c1C [SIM, Simeprevir] | not detected | moderate inhibitory activity | inhibited virus replication with low IC50 values | +30.2 | inhibit | Inhibition of virus replication by time of drug addition, in words (SARS-CoV-2 [8]): inhibited by the addition of these drugs as late as 4 h post-infection; Effect of HCV drug on the antiviral activity of remdesivir, in words (SARS-CoV-2 [6]): increase the antiviral activity of remdesivir; Effect of remdesivir on the antiviral activity (IC90) of the HCV drug, in words (SARS-CoV-2 [6]): substantially reduces; Cytotoxicity in Vero E6 cells, in words (Vero E6 cells): some cytotoxicity was also observed; Interaction with remdesivir (SARS-CoV-2 [9]): synergistically; Inhibition of PL^pro (PL^pro): inhibit |
| CCC[C@H](NC(=O)[C@@H]1[C@H]2CCC[C@H]2CN1C(=O)[C@@H](NC(=O)[C@@H](NC(=O)c1cnccn1)C1CCCCC1)C(C)(C)C)C(=O)C(=O)NC1CC1 [TEL, Telaprevir] | – | substantial enzyme inhibition activity | did not inhibit virus replication | – | – | Inhibition of M^pro proteolytic activity (M^pro): inhibit |
| CC[C@@H]1C[C@]1(NC(=O)[C@@H]1C[C@@H]2CN1C(=O)[C@H](C(C)(C)C)NC(=O)OCC(C)(C)CCCCc1cccc3c1CN(C3)C(=O)O2)C(=O)NS(=O)(=O)C1CC1 [VAN, Vaniprevir] | not detected | substantial inhibitory activity | inhibited virus replication with low IC50 values | – | inhibit | Cytotoxicity in Vero E6 cells, in words (Vero E6 cells): some cytotoxicity was also observed |
